Laboratory results reported in article PMC11813358 (Journal of Microbiology and Biotechnology, 2024).
Numbering of substitutions follows the chain as printed. “And” between values parts separate entries of the source, which are not always exact repeats. Equal entries are not always repeated. “Also recorded” adds a separate entry of the source.

What was measured:
Assay type in all cases: cell-based
[1] = target: T1, double mutant (L260A + V264A) 5-HT3A receptor (Homo sapiens, UniProt P46098, L282A/V286A); test: Two-electrode voltage clamp of I5-HT in oocytes expressing double mutant (L260A/V264A) 5-HT3A receptor; conditions: for Inhibitory effect of MDL 72222 on double mutant: 0.5 μM MDL 72222
T1 construct: expressed in transfected cells; host or cells: Xenopus laevis oocytes injected with cRNA
T1 sequence (P46098 24-478 L282A/V286A): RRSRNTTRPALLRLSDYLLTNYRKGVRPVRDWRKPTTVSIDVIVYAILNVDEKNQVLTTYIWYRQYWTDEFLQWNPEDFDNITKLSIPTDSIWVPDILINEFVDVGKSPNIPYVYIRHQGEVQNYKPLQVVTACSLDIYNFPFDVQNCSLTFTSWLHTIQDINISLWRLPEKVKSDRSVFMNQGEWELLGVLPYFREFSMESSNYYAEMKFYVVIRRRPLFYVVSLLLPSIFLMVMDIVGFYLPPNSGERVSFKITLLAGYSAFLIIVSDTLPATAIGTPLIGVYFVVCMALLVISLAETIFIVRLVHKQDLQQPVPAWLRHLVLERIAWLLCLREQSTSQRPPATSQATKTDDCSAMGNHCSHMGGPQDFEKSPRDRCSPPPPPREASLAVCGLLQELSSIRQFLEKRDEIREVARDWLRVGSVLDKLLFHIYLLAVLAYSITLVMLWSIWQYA
Method: (§1) The experimental procedure follows the approach outlined in the previous study, but is summarized briefly as follows. The plasmid containing the cDNAs for the 5-HT3A receptor was digested with Xho I restriction enzymes to linearize the cDNAs, which were then transcribed into cRNA using the Ambion mMESSAGE mMACHINE transcription kit with T7 RNA polymerase (Thermo Fisher Scientific Inc., USA). After transcription, the cRNA was dissolved in nuclease-free water, and its size and concentration were assessed via electrophoresis and spectrophotometry (DeNovix Inc., USA). The cRNA was aliquoted to a concentration of 1 μg/μl for storage at -80°C. Specific mutations were introduced into the 5-HT3A receptor using the QuickChange site-directed mutagenesis kit (Agilent Technologies Inc., USA) and PCR. The correctness of the mutations was verified by sequencing the final mutated DNA (CosmoGenetech Co., Republic of Korea).
(§2) The study utilized female Xenopus laevis frogs that were kept according to institutional protocols (CNU IACUC-YB-2016-07, July 2016), requiring a stable temperature of around 20°C and a 12-h light-dark cycle. Frog care adhered to standards from the Korean Xenopus Resource Center for Research (KXRCR000001). Anesthesia was induced by placing the frogs on ice, after which a small abdominal incision was made to extract oocytes, which were isolated using OR2 buffer (containing 82.5 mM NaCl, 2 mM KCl, 1 mM MgCl2, and 5 mM HEPES, pH 7.5) with collagenase. After rinsing with ND96 buffer (which includes 96 mM NaCl, 2 mM KCl, 1 mM MgCl2, 1.8 mM CaCl2, and 5 mM HEPES, pH 7.5), stage V-VI oocytes were selected and incubated at 18°C with ND96 incubation buffer containing sodium pyruvate and gentamicin for 2 to 3 days. Finally, 40 ng of 5HT3A cRNA was injected into each oocyte using a Nanoject automatic oocyte injector.
(§3) Two to three days post-RNA injection, the expression of the 5-HT3A protein in the oocytes was verified using a two-electrode oocyte clamp (OC-725C, Warner Instruments, LLC, USA). An agar bridge facilitated electrical connections, while ND96 buffer flowed continuously into the net chamber at 2 ml/min. Two glass microelectrodes filled with 3 M KCl (0.2 MΩ resistance) accessed the oocytes. To analyze the current-voltage relationship, voltages from −80 to +50 mV were applied, maintaining a holding potential of −80 mV. Current data were collected with a Digidata 1550 series device and analyzed using pCLAMP 10 software (Molecular Devices LLC, USA).
(§4) The Hill equation was used for graph fitting in OriginPro 7.0, as detailed below:
(§5) y = Vmin + (Vmax − Vmin) * [x]^n/([IC50]^n + [x]^n)
In this formula, Vmax and Vmin represent the highest and lowest current values, respectively. […]

[2] = target: T2, Human 5-hydroxytryptamine receptor 3A subtype (wild-type 5-HT3A receptor) (Homo sapiens, UniProt P46098); test: Two-electrode voltage clamp of 5-HT-induced inward current (I5-HT) in Xenopus oocytes expressing wild-type 5-HT3A receptor; conditions: for Imax of 5-HT concentration-response: normalized to maximum 5-HT current
T2 construct: host or cells: Xenopus laevis oocytes injected with cRNA
T2 sequence (P46098 24-478): T1 sequence (P46098 24-478 L282A/V286A) with A259L, A263V
Method: as §1, §2, §3, §4, §5
In this formula, Vmax and Vmin represent the highest and lowest current values, respectively. […] The variable x signifies the concentration of these compounds, while n corresponds to the Hill coefficient.

[3] = target: T3, L260A mutant 5-HT3A receptor (Homo sapiens, UniProt P46098, L282A); test: Two-electrode voltage clamp of I5-HT in oocytes expressing L260A mutant 5-HT3A receptor; conditions: 100 μM 5-HT
T3 construct: expressed in transfected cells; host or cells: Xenopus laevis oocytes injected with cRNA
T3 sequence (P46098 24-478 L282A): T1 sequence (P46098 24-478 L282A/V286A) with A263V
Method: as §1
as §2, with “Finally, 40 ng of 5HT3A cRNA was injected into each oocyte using a Nanoject automatic oocyte injector.” left out
(§6) Two to three days post-RNA injection, the expression of the 5-HT3A protein in the oocytes was verified using a two-electrode oocyte clamp (OC-725C, Warner Instruments, LLC, USA). […] Current data were collected with a Digidata 1550 series device and analyzed using pCLAMP 10 software (Molecular Devices LLC, USA). […]

[4] = target: T4, V264A mutant 5-HT3A receptor (Homo sapiens, UniProt P46098, V286A); test: Two-electrode voltage clamp of I5-HT in oocytes expressing V264A mutant 5-HT3A receptor; conditions: 100 μM 5-HT
T4 construct: expressed in transfected cells; host or cells: Xenopus laevis oocytes injected with cRNA
T4 sequence (P46098 24-478 V286A): T1 sequence (P46098 24-478 L282A/V286A) with A259L
Method: as §1
as §2, with “Finally, 40 ng of 5HT3A cRNA was injected into each oocyte using a Nanoject automatic oocyte injector.” left out
as §6

[5] = 5-HT + 3 μM nicergoline, −80 mV
[6] = 5-HT + 30 μM nicergoline, −80 mV
[7] = wild type, co-treatment with 100 μM 5-HT, −80 mV
[8] = −80 mV, unit not printed in Table 3, taken

CN1[C@@H]2CC[C@H]1C[C@@H](OC(=O)c1cc(Cl)cc(Cl)c1)C2 [MDL 72222] was tested. Which “Inhibitory effect of MDL 72222 on double mutant” value ([1]; double mutant (L260A/V264A)) did it give?
The value was “strongly inhibited”.

What about the “Inhibitory effect of MDL 72222 on double mutant” value ([1]; double mutant (L260A/V264A), listed as MDL72222) of the same molecule?
The value was “remained unaffected”.

Which results are given for CO[C@]12C[C@@H](COC(=O)c3cncc(Br)c3)CN(C)[C@@H]1Cc1cn(C)c3cccc2c13 [nicergoline]?
5-HT current when 5-HT applied immediately following nicergoline, % of the initial (baseline) current ([2]; 30 μM nicergoline applied alone, then 100 μM 5-HT at 0 sec washout): 56.2 ± 10.9%; Imax of 5-HT concentration-response [2, 5]: 70.6 ± 2.9; nH of 5-HT concentration-response [2, 5]: 1.3 ± 0.4; Imax of 5-HT concentration-response [2, 6]: 45.8 ± 8.6; nH of 5-HT concentration-response [2, 6]: 1.2 ± 0.3; Mode of antagonism versus 5-HT ([2]; 5-HT concentration-response in presence of 3 and 30 μM nicergoline): non-competitive; IC50 ([2]; wild type, co-treatment with 100 μM 5-HT, holding potential −80 mV): 7.7 ± 0.9 µM; Hill coefficient (nH) of inhibition [2, 7]: 1.4 ± 0.2; Maximum inhibition of I5-HT [2, 7]: 91.1 ± 3.4%; Maximum inhibition of I5-HT ([2]; wild type, co-treatment with 100 μM 5-HT, −80 mV, listed as Nicergoline): approximately 91%; nH [3]: 1.2 ± 0.3; Maximum inhibition of I5-HT ([3]; −80 mV): 51% and 51.9 ± 2.9%; IC50 [3, 8]: 57.4 ± 5.6 µM; nH [4]: 0.8 ± 0.2; Maximum inhibition of I5-HT ([4]; −80 mV): 24% and 24.1 ± 0.8%; IC50 [4, 8]: 54.7 ± 5 µM; Inhibitory effect of nicergoline on double mutant ([1]; 100 μM nicergoline, double mutant (L260A/V264A)): absent; also recorded: abolished; Maximum inhibition of I5-HT ([1]; L260A + V264A double mutant, 100 μM 5-HT, −80 mV): 2.7 ± 1.3%

With NCCc1c[nH]c2ccc(O)cc12 [serotonin, 5-hydroxytryptamine] as the molecule, how does the “Imax of 5-HT concentration-response” value ([2]; Control, 5-HT alone, −80 mV) read?
The value was 101.5 ± 4.6.

What about the “nH of 5-HT concentration-response” value ([2]; Control, 5-HT alone, −80 mV) of the same molecule?
The value was 1.2 ± 0.1.
